According to patent US12129221B2, “Difluoro phenyl amide RIP1 inhibitor” (SIRONAX LTD, priority 2018, dated 2024):
Entries after “also recorded” stand apart in the source; their conditions may differ.

Key:
[1] = tested on: mouse EAE model of multiple sclerosis; assay: Mouse EAE model of multiple sclerosis; assay type: in vivo, C57/BL6 mice
Excerpt: A mouse EAE model of multiple sclerosis was established by immunizing C57/BL6 mice with MOG35-55 (amino acids 35-55 of myelin oligodendrocyte glycoprotein) to induce autoimmune reaction to the myelin of the CNS. Immune reaction causes damage to the myelin, and subsequently the neurons, resulting in animal paralysis.
SIR1-365 was delivered by food at 10 g/kg and FTY-720 was used as a positive control. Mice were feed with FTY-720 containing drinking water or with SIR1-365 containing chow 2 days before 1st immunization for 28 consecutive days. Scoring started at Day 8 post-1st immunization.
The results of pathological studies indicated myelin destruction of the spinal cord was protected by SIR1-365. Three different spinal cord regions were sectioned and stained with hematoxylin and eosin (H&E), spinal cord damages were scored and quantified. Feeding with SIR1-365 containing food protected spinal cord damage induced by auto-immune reaction in EAE model.

PK in monkey = settings: in vivo
[2] = Liver microsome stability, mouse; assay type: in vitro ADME; settings: liver microsomes
Excerpt: (§1) Representative Metabolic Stability Data I; +, Extrapolated.

[3] = Liver microsome stability, mini-pig; assay type: in vitro ADME; set-up: key to mini-pig T1/2 (min): +, Extrapolated; settings: extrapolated
Excerpt: as §1

In the case of `CCC(C)(C)C(=O)N(O)Cc1cc(F)cc(F)c1` [Compound 13, N-(3,5-difluorobenzyl)-N-hydroxy-2,2-dimethylbutanamide], the “EAE-induced myelin / spinal cord damage and animal paralysis” value ([1]; 10 g of compound per kilogram food, H&E stained spinal cord sections, listed as SIR1-365) is reported as “significantly reduced EAE-induced myelin damage and animal paralysis; also recorded: substantial reduction of myelin damage”, the “disease score in EAE mice” value ([1]; delivered by food at 10 g/kg, 28 consecutive days) is reported as “significantly reduced the disease score” and the AUC(0-inf) (PK in monkey; IV 2 mg/kg) is reported as 1760 ng·h/mL. For the same molecule, the clearance (PK in monkey; IV 2 mg/kg) was 19.3 mL/min/kg, the half-life (PK in monkey; IV 2 mg/kg) was 11.2 h and the Vd (PK in monkey; IV 2 mg/kg, read-out: Vdss) was 0.93 L/kg. The AUC(0-inf) (PK in monkey; PO 30 mg/kg) was 6930 ng·h/mL, the Cmax (PK in monkey; PO 30 mg/kg) was 3730 ng/mL and the bioavailability (PK in monkey; PO 30 mg/kg) was 26.3%. It also gave a half-life (PK in monkey; PO 30 mg/kg) of 1.5 h, an AUC(0-inf) (PK in monkey; PO 100 mg/kg) of 41600 ng·h/mL and a Cmax (PK in monkey; PO 100 mg/kg) of 10700 ng/mL. The bioavailability (PK in monkey; PO 100 mg/kg) was 47.5%, the half-life (PK in monkey; PO 100 mg/kg) was 1.77 h and the AUC(0-inf) (PK in monkey; PO 200 mg/kg) was 87200 ng·h/mL. The Cmax (PK in monkey; PO 200 mg/kg) was 20600 ng/mL, the bioavailability (PK in monkey; PO 200 mg/kg) was 49.5% and the half-life (PK in monkey; PO 200 mg/kg) was 2.16 h. The half-life ([2]; comparison table with WO2016/101885 compounds, read-out: Mouse Liver Microsome T1/2) was 0.283 h, the half-life ([2]; liver microsome stability, read-out: Mouse T1/2) was 0.285 h and the “mini-pig T1/2 (min)” value [3] was “+”.
